Tests used:
[1] = Behavior (solubility/dispersibility) in water and […] brine at 5% concentration; assay type: physicochemical; details: 5% concentration as is
Text: The compounds tested are set forth in the following Table 1, CE# denotes a comparative example, whereas S# denotes a compound of the present invention.

[2] = Anti-agglomeration of gas hydrates in presence of crude oil (high-pressure autoclave); details: for State of the hydrates after depressurization: 1.125% solvent-free basis in salt water, 3300 psi, 40° F. 16 hours
Experimental: The comparative test was carried out at a 50:50 oil to water ratio.
The crude oil was heated to 150° F. to dissolve waxes. […] To saturate the liquid with gas, after 30 minutes, the agitation was reduced to 100 rpm and the autoclave was cooled at 10° F./hr to 40° F., at which time, agitation was stopped and the 40° F. temperature was maintained for 16 hours.
After the 16 hour time period, agitation was restarted at 500 rpm to determine the torque required and the experiment was run for 5 hours, if possible. The autoclave was then rapidly depressurized and the state of the hydrates was observed.

| Compound | Behavior in […] Brine [1] | Behavior in Water [1] | State of the hydrates after depressurization ([2]; oil to water 50:50) | State of the hydrates after depressurization ([2]; oil to water 70:30) | Gas hydrates on the walls of the reactor ([2]; 1.125% solvent-free basis, 70:30 and 50:50 ratios) | Effectiveness as anti-agglomeration agent ([2]; low use levels) |
| --- | --- | --- | --- | --- | --- | --- |
| C12-C14 oxypropyl dibutyl ethylammonium ethylsulfate [Sample S4] | Soluble | Soluble | – | – | – | – |
| CCCCCCCCCCCCCCCC[N+](CCCC)(CCCC)CCCC.[Br-] [CE2, Hexadecyl tributyl ammonium bromide, reference compound] | – | Insoluble | – | – | – | – |
| C12-C14 oxypropyl dibutyl amino propyl tributylammonium dibromide [Sample S5] | Soluble | Soluble | – | – | – | – |
| C12-C14 oxypropyl tributylammonium bromide [Sample S1] | – | – | very small particles which were creamy in texture | very small particles which were creamy in texture | No gas hydrates were observed on the walls of the reactor | highly effective |
| C12-C14 oxypropyl dibutyl methylammonium methyl sulfate [Sample S2] | Soluble | Soluble | – | – | – | – |

From patent publication US6444852B1, “Amines useful in inhibiting gas hydrate formation” (Goldschmidt Chemical Corporation, priority 1999, dated 2002)
